# Laboratory results reported in PubChem BioAssay AID1259407 (Chemical Carcinogenesis Research Information System (CCRIS), 2018).
# Calls of active or inactive are those of the source. The rule behind the calls is not given here.
# Test system: CCRIS mutagenicity, Ames/micronucleus/aberration tests
# Assay: CCRIS mutagenicity studies
# [1] = Test System: AMES SALMONELLA TYPHIMURIUM, Strain/Indicator: TA98, Metabolic Activation: NONE, Method: STANDARD PLATE
# [2] = Test System: AMES SALMONELLA TYPHIMURIUM, Strain/Indicator: TA98, Metabolic Activation: RAT, LIVER, S-9, AROCLOR 1254, Method: STANDARD PLATE
# [3] = Test System: AMES SALMONELLA TYPHIMURIUM, Strain/Indicator: TA100, Metabolic Activation: NONE, Method: STANDARD PLATE
# [4] = Test System: AMES SALMONELLA TYPHIMURIUM, Strain/Indicator: TA100, Metabolic Activation: RAT, LIVER, S-9, AROCLOR 1254, Method: STANDARD PLATE
# [5] = Test System: AMES SALMONELLA TYPHIMURIUM, Strain/Indicator: TA1535, Metabolic Activation: NONE, Method: STANDARD PLATE
# [6] = Test System: AMES SALMONELLA TYPHIMURIUM, Strain/Indicator: TA1535, Metabolic Activation: RAT, LIVER, S-9, AROCLOR 1254, Method: STANDARD PLATE
# [7] = Test System: AMES SALMONELLA TYPHIMURIUM, Strain/Indicator: TA1537, Metabolic Activation: NONE, Method: STANDARD PLATE
# [8] = Test System: AMES SALMONELLA TYPHIMURIUM, Strain/Indicator: TA1537, Metabolic Activation: RAT, LIVER, S-9, AROCLOR 1254, Method: STANDARD PLATE
# [9] = Test System: AMES SALMONELLA TYPHIMURIUM, Strain/Indicator: TA1538, Metabolic Activation: NONE, Method: STANDARD PLATE
# [10] = Test System: AMES SALMONELLA TYPHIMURIUM, Strain/Indicator: TA1538, Metabolic Activation: RAT, LIVER, S-9, AROCLOR 1254, Method: STANDARD PLATE
structure (smiles),measurement,setting,value
C#C[C@]1(OC(=O)CCCCCC)CC[C@H]2[C@@H]3CCC4=CC(=O)CC[C@@H]4[C@H]3CC[C@@]21C,mutagenic call,"Test System: AMES SALMONELLA TYPHIMURIUM, Strain/Indicator: TA98, Metabolic Activation: NONE, Method: PREINCUBATION",inactive; negative
same,mutagenic call,[1],inactive; negative
same,mutagenic call,"Test System: AMES SALMONELLA TYPHIMURIUM, Strain/Indicator: TA98, Metabolic Activation: RAT, LIVER, S-9, AROCLOR 1254, Method: PREINCUBATION",inactive; negative
same,mutagenic call,[2],inactive; negative
same,mutagenic call,"Test System: AMES SALMONELLA TYPHIMURIUM, Strain/Indicator: TA100, Metabolic Activation: NONE, Method: PREINCUBATION",inactive; negative
same,mutagenic call,[3],inactive; negative
same,mutagenic call,"Test System: AMES SALMONELLA TYPHIMURIUM, Strain/Indicator: TA100, Metabolic Activation: RAT, LIVER, S-9, AROCLOR 1254, Method: PREINCUBATION",inactive; negative
same,mutagenic call,[4],inactive; negative
same,mutagenic call,"Test System: AMES SALMONELLA TYPHIMURIUM, Strain/Indicator: TA1535, Metabolic Activation: NONE, Method: PREINCUBATION",inactive; negative
same,mutagenic call,[5],inactive; negative
same,mutagenic call,"Test System: AMES SALMONELLA TYPHIMURIUM, Strain/Indicator: TA1535, Metabolic Activation: RAT, LIVER, S-9, AROCLOR 1254, Method: PREINCUBATION",inactive; negative
same,mutagenic call,[6],inactive; negative
same,mutagenic call,"Test System: AMES SALMONELLA TYPHIMURIUM, Strain/Indicator: TA1537, Metabolic Activation: NONE, Method: PREINCUBATION",inactive; negative
same,mutagenic call,[7],inactive; negative
same,mutagenic call,"Test System: AMES SALMONELLA TYPHIMURIUM, Strain/Indicator: TA1537, Metabolic Activation: RAT, LIVER, S-9, AROCLOR 1254, Method: PREINCUBATION",inactive; negative
same,mutagenic call,[8],inactive; negative
same,mutagenic call,"Test System: AMES SALMONELLA TYPHIMURIUM, Strain/Indicator: TA1538, Metabolic Activation: NONE, Method: PREINCUBATION",inactive; negative
same,mutagenic call,[9],inactive; negative
same,mutagenic call,"Test System: AMES SALMONELLA TYPHIMURIUM, Strain/Indicator: TA1538, Metabolic Activation: RAT, LIVER, S-9, AROCLOR 1254, Method: PREINCUBATION",inactive; negative
same,mutagenic call,[10],inactive; negative
Cn1c(N)nc2nc3ccncc3cc21,mutagenic call,"Test System: AMES SALMONELLA TYPHIMURIUM, Strain/Indicator: TA98, Metabolic Activation: RAT, LIVER, S-9, AROCLOR 1254A, Method: STANDARD PLATE",inactive; negative
same,mutagenic call,"Test System: AMES SALMONELLA TYPHIMURIUM, Strain/Indicator: YG1024, Metabolic Activation: RAT, LIVER, S-9, AROCLOR 1254A, Method: STANDARD PLATE",active; positive
CC(C)=CCCC(C)CC=O (stereo not drawn),mutagenic call,"Test System: AMES SALMONELLA TYPHIMURIUM, Strain/Indicator: TA97A, Metabolic Activation: NONE, Method: STANDARD PLATE",inactive; negative
same,mutagenic call,"Test System: AMES SALMONELLA TYPHIMURIUM, Strain/Indicator: TA97A, Metabolic Activation: RAT LIVER S-9, AROCLOR 1254, Method: STANDARD PLATE",inactive; negative
same,mutagenic call,[1],inactive; negative
same,mutagenic call,"Test System: AMES SALMONELLA TYPHIMURIUM, Strain/Indicator: TA98, Metabolic Activation: RAT LIVER S-9, AROCLOR 1254, Method: STANDARD PLATE",inactive; negative
same,mutagenic call,[3],inactive; negative
same,mutagenic call,"Test System: AMES SALMONELLA TYPHIMURIUM, Strain/Indicator: TA100, Metabolic Activation: RAT LIVER S-9, AROCLOR 1254, Method: STANDARD PLATE",inactive; negative
same,mutagenic call,"Test System: AMES SALMONELLA TYPHIMURIUM, Strain/Indicator: TA102, Metabolic Activation: NONE, Method: STANDARD PLATE",inactive; negative
same,mutagenic call,"Test System: AMES SALMONELLA TYPHIMURIUM, Strain/Indicator: TA102, Metabolic Activation: RAT LIVER S-9, AROCLOR 1254, Method: STANDARD PLATE",inactive; negative
CC(C)(C)NCC(O)COc1cccc2c1CC(O)C(O)C2 (stereo not drawn),mutagenic call,[1],inactive; negative
same,mutagenic call,[2],inactive; negative
same,mutagenic call,[3],inactive; negative
same,mutagenic call,[4],inactive; negative
same,mutagenic call,"Test System: UDS HUMAN HEPATOCYTES, Strain/Indicator: THY INCORP, Metabolic Activation: NONE, Method: AUTORADIOGRAPHY",inactive; negative
same,mutagenic call,"Test System: UDS RAT HEPATOCYTES, Strain/Indicator: THY INCORP, Metabolic Activation: NONE, Method: AUTORADIOGRAPHY",inactive; negative
C=CC(=O)OCC(C)(C)C,mutagenic call,[1],inactive; negative
same,mutagenic call,[2],inactive; negative
same,mutagenic call,"Test System: AMES SALMONELLA TYPHIMURIUM, Strain/Indicator: TA98, Metabolic Activation: RAT, LIVER, S-9, SODIUM PHENOBARBITAL, Method: STANDARD PLATE",inactive; negative
same,mutagenic call,[3],inactive; negative
same,mutagenic call,[4],inactive; negative
same,mutagenic call,"Test System: AMES SALMONELLA TYPHIMURIUM, Strain/Indicator: TA100, Metabolic Activation: RAT, LIVER, S-9, SODIUM PHENOBARBITAL, Method: STANDARD PLATE",inactive; negative
same,mutagenic call,[5],inactive; negative
same,mutagenic call,[6],inactive; negative
same,mutagenic call,"Test System: AMES SALMONELLA TYPHIMURIUM, Strain/Indicator: TA1535, Metabolic Activation: RAT, LIVER, S-9, SODIUM PHENOBARBITAL, Method: STANDARD PLATE",inactive; negative
same,mutagenic call,[7],inactive; negative
same,mutagenic call,[8],inactive; negative
same,mutagenic call,"Test System: AMES SALMONELLA TYPHIMURIUM, Strain/Indicator: TA1537, Metabolic Activation: RAT, LIVER, S-9, SODIUM PHENOBARBITAL, Method: STANDARD PLATE",inactive; negative
same,mutagenic call,[9],inactive; negative
same,mutagenic call,[10],inactive; negative
same,mutagenic call,"Test System: AMES SALMONELLA TYPHIMURIUM, Strain/Indicator: TA1538, Metabolic Activation: RAT, LIVER, S-9, SODIUM PHENOBARBITAL, Method: STANDARD PLATE",inactive; negative
[S]=[Pb],mutagenic call,"Test System: CHINESE HAMSTER V-79, Strain/Indicator: V-79/6-THIOGUANINE, Metabolic Activation: NONE, Method: STANDARD PLATE",active; positive
O=S(=O)(O)c1c(N=Nc2c(O)ccc3ccccc23)ccc2ccccc12,mutagenic call,"Test System: AMES SALMONELLA TYPHIMURIUM, Strain/Indicator: TA98, Metabolic Activation: HAMSTER, LIVER, S-9, AROCLOR 1254, Method: STANDARD PLATE",active; positive
same,mutagenic call,"Test System: AMES SALMONELLA TYPHIMURIUM, Strain/Indicator: TA98, Metabolic Activation: HAMSTER, LIVER, S-9, Method: PREINCUBATION (PRIVAL METHOD)",inactive; negative
same,mutagenic call,[1],active; positive
same,mutagenic call,[2],inactive; negative
same,mutagenic call,"Test System: AMES SALMONELLA TYPHIMURIUM, Strain/Indicator: TA100, Metabolic Activation: HAMSTER, LIVER, S-9, AROCLOR 1254, Method: STANDARD PLATE",active; positive
same,mutagenic call,[3],inactive; negative
same,mutagenic call,[4],inactive; negative
same,mutagenic call,"Test System: AMES SALMONELLA TYPHIMURIUM, Strain/Indicator: TA1535, Metabolic Activation: HAMSTER, LIVER, S-9, AROCLOR 1254, Method: STANDARD PLATE",active; positive
same,mutagenic call,[5],inactive; negative
same,mutagenic call,[6],inactive; negative
same,mutagenic call,[7],inactive; negative
same,mutagenic call,"Test System: AMES SALMONELLA TYPHIMURIUM, Strain/Indicator: TA1538, Metabolic Activation: HAMSTER, LIVER, S-9, AROCLOR 1254, Method: STANDARD PLATE",active; positive
same,mutagenic call,[9],inactive; negative
same,mutagenic call,[10],inactive; negative
same,mutagenic call,"Test System: MOUSE LYMPHOMA, Strain/Indicator: L5178Y (TK+/TK-), Metabolic Activation: NONE, Method: SUSPENSION/PLATE",inactive; negative. reevaluation of results: inconclusive
same,mutagenic call,"Test System: MOUSE LYMPHOMA, Strain/Indicator: L5178Y (TK+/TK-), Metabolic Activation: RAT, LIVER, S-9, AROCLOR 1254, Method: SUSPENSION/PLATE",inactive; negative. reevauluation of results: negative
